In patent EP0001503A1, “Antithrombotic compositions containing benzisothiazolones” (BEECHAM GROUP PLC, priority 1977, dated 1979):
Where a name gives a salt, the structure may show the parent alone. Marks after values point to notes of the source that are not given here.

Tests used:
[1] = test system: platelet aggregation (ADP); experiment: Inhibition of ADP-induced platelet aggregation, guinea pig ex vivo (turbidimetric, PRP); type: in vivo; settings: p.o.
Method: (§1) These compounds were tested for inhibition of platelet aggregation alone and in combination with certain anti-inflammatory agents, in the guinea pig ex vivo by the following method: • Ten male guinea pigs weighing 250-300 g were orally dosed 1% methyl cellulose (5 ml/kg) in which the compound under test was suspended. Ten control animals were given methyl cellulose alone. […] Platelet-rich- plasma (PRP) was prepared from each blood sample by centrifigation at 450 g to 5 min. The platelet concentration in each sample or PRP was adjusted with auto- logous platelet-poor-plasma to give a count of […] PRP. Aggregation was measured turbido- metrically (G.V.R. Born, 1962, Nature, 194, 927-929) at 39° using a Bryston aggregometer coupled to a penrecorder. The concentration of callogen producing approximately 50% maximal aggregation and the concentration of ADP producing first-phase aggregation were compared in PRP samples from control and drug treated animals.
(§2) In the tables the dose ratio represents the ratio of the concentration of aggregating agent to cause aggregation in PRP from drug-treated animals to the concentration of aggregating agent to cause aggregation in PRP from control animals.

[2] = test system: platelet aggregation (collagen); experiment: Inhibition of collagen-induced platelet aggregation, guinea pig ex vivo (turbidimetric, PRP); type: in vivo; settings: p.o.
Method: as §1, §2

[3] = Table 1, ADP 0.5μM, 2 h, mmol(mg)/kg: Aspirin 0.15 (27), Compound A 0.08 (20), combination 0.15 (27)+0.08 (20)
[4] = Table 1, 2 h, mmol(mg)/kg: Aspirin 0.15 (27), Compound A 0.08 (20), combination 0.15 (27)+0.08 (20)
[5] = Table 1, PRP 2 h after dosing, mmol(mg)/kg: Aspirin 0.15 (27), Compound A 0.08 (20), combination 0.15 (27)+0.08 (20)
[6] = Table 2, ADP 0.5μM, 2 h, mmol(mg)/kg: Aspirin 0.15 (27), Compound B 0.08 (22), combination 0.15 (27)+0.08 (22)
[7] = Table 2, 2 h, mmol(mg)/kg: Aspirin 0.15 (27), Compound B 0.08 (22), combination 0.15 (27)+0.08 (22)
[8] = Table 4, ADP 0.5μM, 2 h, mmol(mg)/kg: Aspirin 0.15 (27), Compound C 0.6 (217), combination 0.15 (27)+0.6 (217)
[9] = Table 4, 2 h, mmol(mg)/kg: Aspirin 0.15 (27), Compound C 0.6 (217), combination 0.15 (27)+0.6 (217)
[10] = Table 5, ADP 0.5µM, 2 h, mmol(mg)/kg: Aspirin 0.15 (27), Compound D 0.08 (31), combination 0.08 (31)+0.15 (27)
[11] = Table 5, 2 h, mmol(mg)/kg: Aspirin 0.15 (27), Compound D 0.08 (31), combination 0.08 (31)+0.15 (27)
[12] = Table 6, ADP 0.5µM, 2 h, mmol(mg)/kg: Aspirin 0.15 (27), Compound D 0.15 (59), Compound D Aspirinate Salt 0.15 (88)
[13] = Table 6, 2 h, mmol(mg)/kg: Aspirin 0.15 (27), Compound D 0.15 (59), Compound D Aspirinate Salt 0.15 (88)
[14] = Table 3, ADP 0.5µM, 2 h, mmol(mg)/kg: Indomethacin 0.003 (1), Compound B 0.08 (22), combination 0.003 (1)+0.08 (22)
[15] = Table 3, 2 h, mmol(mg)/kg: Indomethacin 0.003 (1), Compound B 0.08 (22), combination 0.003 (1)+0.08 (22)

For `CC(=O)Oc1ccccc1C(=O)O` [Aspirin, aspirin, reference compound], the “% Inhibition of ADP (0.5µM)” value [1, 3] was 16%, the “% Inhibition of ADP 1μM” value [1, 4] was 0% and the “Dose-ratio vs. ADP” value [1, 5] was 1.3. For the same molecule, the “% Inhibition of ADP (0.5µM)” value [1, 6] was 0%, the “Dose-ratio vs. ADP” value [1, 7] was 1.3 and the “% Inhibition of ADP (0.5µM)” value [1, 8] was 0%. The “Dose-ratio vs. ADP” value [1, 9] was 1.3, the “% Inhibition of ADP (0.5µM)” value [1, 10] was 0% and the “Dose-ratio vs. ADP” value [1, 11] was 1.3. The “% Inhibition of ADP (0.5µM)” value [1, 12] was 0%, the “Dose-ratio vs. ADP” value [1, 13] was 1.3 and the “Dose-ratio vs. Coll.” value [2, 5] was 2.2*. For the same molecule, the “Dose-ratio vs. Coll.” value [2, 7] was 2.2*, the “Dose-ratio vs. Coll.” value [2, 9] was 2.2* and the “Dose-ratio vs. Coll.” value [2, 11] was 2.2*. For the same molecule, the “Dose-ratio vs. Coll.” value [2, 13] was 2.2*.
For `O=c1c2ccccc2sn1CCN1CCCCC1` [Compound A, 2-[2-(1-piperidyl)ethyl] 1,2-benzisothiazol-3-one], the “% Inhibition of ADP (0.5µM)” value [1, 3] was 26%, the “% Inhibition of ADP 1μM” value [1, 4] was 0% and the “Dose-ratio vs. ADP” value [1, 5] was 1.4*. For the same molecule, the “Dose-ratio vs. Coll.” value [2, 5] was 8.3*.
With `O=c1c2ccccc2sn1CCCN1CCCCC1` [Compound B, 2-[3-(1-piperidyl)propyl]-1,2-benzisothiazol-3-one] the “% Inhibition of ADP (0.5µM)” value [1, 6] was 57* %, the “Dose-ratio vs. ADP” value [1, 7] was 1.7* and the “% Inhibition of ADP (0.5µM)” value [1, 14] was 57* %. For the same molecule, the “Dose-ratio vs. ADP” value [1, 15] was 1.7*, the “Dose-ratio vs. Coll.” value [2, 7] was 9.0* and the “Dose-ratio vs. Coll.” value [2, 15] was 9.0*.
With `COc1cc2sn(CCN3CC4CCC(CC4)C3)c(=O)c2cc1OC` [Compound C, 2-[2-(3-azabicyclo[3.2.2]non-3-yl)ethyl)-5,6-dimethoxy-1,2-benzisothiazol-3-one] the “% Inhibition of ADP (0.5µM)” value [1, 8] was 92* %, the “Dose-ratio vs. ADP” value [1, 9] was 3.3* and the “Dose-ratio vs. Coll.” value [2, 9] was >13.9*.
`COc1cc2sn(CCCCN3CC4CCC(CC4)C3)c(=O)c2cc1OC` [Compound D Aspirinate Salt, Aspirin salt of 2-(4-(3-azabicyclo[3.2.2.]non-3-yl)butyl)-5,6-dimethoxy-1,2-benzisothiazol-3-one] was tested, and the “% Inhibition of ADP (0.5µM)” value [1, 12] was 91* %, the “Dose-ratio vs. ADP” value [1, 13] was 4.6* and the “Dose-ratio vs. Coll.” value [2, 13] was >57*.
With `COc1cc2sn(CCCCN3CC4CCC(CC4)C3)c(=O)c2cc1OC` [Compound D, 2-[4-(3-azabicyclo[3.2.2]non-3-yl)butyl]-5,6-dimethoxy-1,2-benzisothiazol-3-one] the “% Inhibition of ADP (0.5µM)” value [1, 10] was 86* %, the “Dose-ratio vs. ADP” value [1, 11] was 2.6* and the “% Inhibition of ADP (0.5µM)” value [1, 12] was 61* %. The “Dose-ratio vs. ADP” value [1, 13] was 3.2*, the “Dose-ratio vs. Coll.” value [2, 11] was 5.4* and the “Dose-ratio vs. Coll.” value [2, 13] was >15.4*.
For `COc1ccc2c(c1)c(CC(=O)O)c(C)n2C(=O)c1ccc(Cl)cc1` [Indo-methacin, Indomethacin, reference compound], the “% Inhibition of ADP (0.5µM)” value [1, 14] was 0%, the “Dose-ratio vs. ADP” value [1, 15] was 1.1 and the “Dose-ratio vs. Coll.” value [2, 15] was 1.7*.
